Values after ≈ are worked out from the molar mass of the structure shown.
Tests used:
Assay in all cases: MIC (MHK), agar dilution on Iso-Sensitest agar, multipoint inoculator
Assay type in all cases: cell-based
E. coli A 261 = conditions: Escherichia coli, A261; strain E. coli A 261; 37°C, read after ca. 20 h, ca. 10^4 colony-forming particles per inoculation point
Excerpt: (§1) Die minimalen Hemmkonzentrationen (MHK) wurden per Reihenverdünnungsverfahren auf Iso-Sensitest Agar (Oxoid) bestimmt. Für jede Prüfsubstanz wurde eine Reihe von Agarplatten hergestellt, die bei jeweils doppelter Verdünnung abfallende Konzentrationen des Wirkstoffes enthielten. Die Agarplatten wurden mit einem MultipointInokulator (Denley) beimpft. Zum Beimpfen wurden Übernachtkulturen der Erreger verwandt, die zuvor so verdünnt wurden, daß jeder Impfpunkt ca. 10^4 koloniebildende Partikel enthielt. Die beimpften Agarplatten wurden bei 37°C bebrütet, und das Keimwachstum wurde nach ca. 20 Stunden abgelesen. Der MHK-Wert (µg/ml) gibt die niedrigste Wirkstoffkonzentration an, bei der mit bloßem Auge kein Keimwachstum zu erkennen war.
(§2) MHK-Werte: Agarverdünnung/Multipoint

Enterococc. 27185 = conditions: strain Enterococc. 27185; 37°C, read after ca. 20 h, ca. 10^4 colony-forming particles per inoculation point
Excerpt: as §1, §2

Klebs. 6097 = conditions: strain Klebs. 6097; 37°C, read after ca. 20 h, ca. 10^4 colony-forming particles per inoculation point
Excerpt: as §1, §2

Staph. aur. 25455 = conditions: strain Staph. aur. 25455; 37°C, read after ca. 20 h, ca. 10^4 colony-forming particles per inoculation point
Excerpt: as §1, §2

Staph. epi. 25185 = conditions: strain Staph. epi. 25185; 37°C, read after ca. 20 h, ca. 10^4 colony-forming particles per inoculation point
Excerpt: as §1, §2

Strept. faec. 27101 = conditions: strain Strept. faec. 27101; 37°C, read after ca. 20 h, ca. 10^4 colony-forming particles per inoculation point
Excerpt: as §1, §2

MIC (E. coli A 261): 4 µg/mL (≈ 8.86 µM)
MIC (Enterococc. 27185): 2 µg/mL (≈ 4.43 µM)
MIC (Klebs. 6097): 2 µg/mL (≈ 4.43 µM)
MIC (Staph. aur. 25455): ≤ 0.25 µg/mL
MIC (Staph. epi. 25185): ≤ 0.25 µg/mL
MIC (Strept. faec. 27101): 16 µg/mL (≈ 35.4 µM)
Compound: C/C=C\C1=C(C(=O)O)N2C(=O)[C@@H](NC(=O)[C@H](N)c3cc4sc(N)nc4s3)[C@H]2SC1 [Beispiel 13a]
